# Test system: ovarian cancer cells
# Assay: Microarray analysis of gene expression in SHetA2-treated ovarian cancer cells
# Type: cell-based, Homo sapiens
# Procedure: Microarray analysis was conducted to determine specific disease causing genes which were expressed at higher (>1 fold) or lower (<1 fold) levels than normal in ovarian cancer cells treated with SHetA2 (see Table 6).
# [1] = Genbank AI358954, Neuromuscular Diseases
smiles,measurement,setting,value
CC1(C)CC(C)(C)c2cc(NC(=S)Nc3ccc([N+](=O)[O-])cc3)ccc2S1 [SHetA2],Fold: Putative c-Myc-responsive (RCL),"Genbank AA523444, Cancer",0.41 Fold
same,"Fold: Myeloidlymphoid or mixed-lineage leukemia (trithorax (Drosophila) homolog); translocated to, 4 (HGC6.3)","Genbank AB016902.2, Cancer",5.07 Fold
same,Fold: Vascular endothelial growth factor (VEGF),Genbank AF022375.1,0.47 Fold
same,"Fold: METH1 protein (METH1), contain a repeated amino acid motif homologous to the anti-angiogenic type 1 repeats of thromospondin-1 (TSP1)",Genbank AF060152.1,0.39 Fold
same,Fold: EHT protein,"Genbank AF068266.1, Cancer",2.80 Fold
same,Fold: Familial Mediterranean fever locus region,"Genbank AF098968.1, Autoimmune Diseases",0.30 Fold
same,Fold: Myeloidlymphoid leukemia 2 (MLL2),"Genbank AF105279.1, Cancer",0.31 Fold
same,Fold: Glypican-6 (GPC6),Genbank AF111178.1,2.07 Fold
same,"Fold: Hemochromatosis splice variant 495-2314del, Iron Storage Disorder","Genbank AF144243.1, Storage and Metabolism Deficiencies",3.01 Fold
same,Fold: BAGE2 antigen (BAGE2),"Genbank AF218570.1, Cancer",0.34 Fold
same,Fold: Prothymosin alpha (PTMA),"Genbank AF257099, Polycystic Kidney Disease",2.60 Fold
same,"Fold: Deleted in lymphocytic leukemia, 2/DEF = Homo sapiens BCMS-upstream neighbor (BCMSUN)","Genbank AF264787.1, Cancer",0.33 Fold
same,"Fold: Deleted in lymphocytic leukemia, BCMS-upstream neighbor (BCMSUN) (DLEU2)","Genbank AF264787.1, Cancer",0.40 Fold
same,Fold: PNAS-128 in leukemia,"Genbank AF277186.1, Cancer",0.36 Fold
same,Fold: BAM in multiple myeloma,"Genbank AF455755.1, Cancer",3.05 Fold
same,Fold: Cervical cancer suppressor gene-4 protein (HCCS-4),"Genbank AF465843.1, Cancer",2.06 Fold
same,"Fold: FLJ23538 fis, highly similar to BETA2 Human MEN1(Multiple Endocrine Neoplasia) region clone epsilonbeta (BETA2)","Genbank AI042152, Cancer",0.31 Fold
same,"Fold: ESTs, Moderately similar to S72399 ras-homolog GTPase rab28 isoform S","Genbank AI080106, Cancer",7.75 Fold
same,Fold: Prostate cancer associated protein 5 (PCANAP5),"Genbank AI299378, Cancer",0.23 Fold
same,"Fold: ESTs, Weakly similar to DRPL_Human Atrophin-1 (DRPL) in Huntington's disease (HD) and dentatorubral and pallidoluysian atrophy (DRPLA) dentatorubral-pallidoluysian atrophy",[1],2.52 Fold
same,"Fold: ESTs, Weakly similar to DRPL_Human Atrophin-1 (DRPL) in dentatorubral-pallidoluysian atrophy",[1],2.52 Fold
same,Fold: B-cell CLLlymphoma 3 (BCL3),"Genbank AI829875, Cancer",2.58 Fold
same,"Fold: Lipoma cell line Li-538SV40 ectopic sequence from HMGI-C fusion mRNA, 3 sequence (LI)","Genbank AI990940, Cancer",0.47 Fold
same,"Fold: Butyrophilin, subfamily 3, member A2 (BTN3A2) milk protein","Genbank AI991252, Autoimmune Diseases",2.31 Fold
same,"Fold: Disintegrin-like and metalloprotease (reprolysin type) with thrombospondin type 1 motif, highly similar to Homo sapiens metalloproteinase with thrombospondin type 1 motifs (ADAMTS1)",Genbank AK023795.1,0.43 Fold
same,"Fold: 3-hydroxyisobutyrate dehydrogenase, mitochondrial precursor",Genbank AK025558,0.00 Fold
same,Fold: NICE-5 protein,"Genbank AW779859, Cancer",0.48 Fold
same,"Fold: ASPLTFE3 type 2 fusion protein, ASPLTFE3 type 1 fusion protein mRNA in Sarcoma","Genbank AY034077.1, Cancer",0.46 Fold
same,"Fold: RASSF3 isoform A, putative tumor suppressor","Genbank AY062002.1, Cancer",2.88 Fold
same,"Fold: A kinase (PRKA) anchor protein 1, clone MGC: 1807",Genbank BC000729.1,2.00 Fold
same,"Fold: IMAGE: 3050107 mRNA, TBC1 domain family","Genbank BC001525, Cancer",0.67 Fold
same,"Fold: v-Myc avian myelocytomatosis viral related oncogene, neuroblastoma derived (MYCN)","Genbank BC002712.1, Cancer",3.99 Fold
same,Fold: aarF domain containing kinase 4,Genbank BC013114,2.30 Fold
same,"Fold: Similar to vitelliform macular dystrophy (Best disease, bestrophin)","Genbank BC041664.1, Eye Diseases",0.26 Fold
same,Fold: Thrombospondin 1 (THBS1),Genbank BE999967,0.42 Fold
same,Fold: SNRPN upstream reading frame (SNURF) in Prader-Willi and Angelman syndrome,"Genbank BF114870, Neuromuscular Diseases",0.39 Fold
same,"Fold: Novel MAFF (v-maf musculoaponeurotic fibrosarcoma (avian) oncogene family, protein F) LIKE protein","Genbank Cluster Incl. AL021977, Cancer",0.47 Fold
same,Fold: Butyrophilin (BTF3) - Milk Fat,"Genbank Cluster Incl. U90548, Autoimmune Diseases",2.15 Fold
same,"Fold: Facioscapulohumeral muscular dystrophy (FSHD) gene region, D4Z4 tandem repeat unit","Genbank D38024, Skeletal Diseases",2.43 Fold
same,"Fold: FYN oncogene related to SRC, FGR and YES, c-syn protooncogene","Genbank M14333.1, Cancer",0.44 Fold
same,Fold: Nephropontin inhibits urine crystals - kidney stones,"Genbank M83248.1, Storage and Metabolism Deficiencies",2.34 Fold
same,"Fold: FYN oncogene related to SRC, FGR and YES (FYN)","Genbank N20923, Cancer",0.13 Fold
same,"Fold: Sarcoglycan, gamma (35 kD dystrophin-associated glycoprotein) (Muscular Dystrophy)","Genbank NM_000231.1, Skeletal Diseases",0.04 Fold
same,Fold: Retinitis pigmentosa GTPase regulator (RPGR),"Genbank NM_000328.1, Eye Diseases",0.47 Fold
same,Fold: UDP-galactose-4-epimerase in epimerase-deficiency galactosemia,"Genbank NM_000403, Storage and Metabolism Deficiencies",0.66 Fold
same,"Fold: Sulfite oxidase (SUOX), nuclear gene encoding mitochondrial protein",Genbank NM_000456.1,2.11 Fold
same,"Fold: Galactosamine (N-acetyl)-6-sulfate sulfatase in Morquio syndrome, mucopolysaccharidosis type IVA","Genbank NM_000512, Storage and Metabolism Deficiencies",0.52 Fold
same,Fold: Regulatory factor X-associated protein (RFXAP)in bare lymphocyte syndrome,"Genbank NM_000538.1, Autoimmune Diseases",0.41 Fold
